Measurements as given in patent US11401274B2, “[1,2,4]Triazolo derivatives as PDE1 inhibitors for the treatment of diabetes” (Eli Lilly and Company, priority 2017, dated 2022).

How the values were obtained:
Assay type in all cases: biochemical
[1] = molecular target: human PDE3A (catalytic domain) (Homo sapiens (Human), UniProt Q14432); assay: PDE enzyme assay using [3H]cAMP as substrate, PDE3A; settings: [3H]cAMP 47 nM, enzyme 0.008 nM, read-out: PDE 3A IC50 (μm) ± SD (n = number of runs)
Excerpt: (§1) The nucleotide sequences encoding full-length human PDE1A (NP_001003683.1) and PDE1C (NP_005011.1) are inserted into pFastBac1 (Invitrogen) vector with an N-terminal HIS tag. The nucleotide sequences encoding full-length human PDE4D (NP_006194.2) and catalytic domain (residue 641-1141) of PDE3A (NP_000912.3) are inserted into pFastBac1 (Invitrogen) vector with a C-terminal HIS tag. The nucleotide sequences encoding full-length human PDE6A (NP_000431.2) and PDE6B (AAH00249.1) are inserted into pFastBacDual (Invitrogen) vector with an N-terminal HIS tag and N-terminal Flag tag, respectively, for production of PDE6A/6B dimer. Baculovirus generation and protein expression in Sf9 cells are carried out according to the protocol of Bac-to-Bac Baculovirus Expression system (Invitrogen). The nucleotide sequence encoding full-length human PDE1B (NP_000915.1) is inserted into pIEX4 (Novagen) with a C-terminal HIS tag, and both protein productions in Sf9 cells are carried out according to the vendor's protocol (Novagen). The His tagged PDE proteins are purified using Ni-NTA agarose (Qiagen) followed by size exclusion chromatography on a SUPERDEX© 200 column (GE Healthcare) in storage buffer (20 mM Tris-HCl, pH7.5, 150 mM NaCl, 10% Glycerol). The Flag tagged PDE proteins including PDE6A/6B are purified using anti-Flag M2-agarose (Sigma), after purification through NiNTA column chromatography and eluted in storage buffer (50 mM Tris-HCl, pH7.5, 150 mM NaCl, 10% Glycerol, 0.1 mg/ml Flag peptide). All purified proteins are stored at −80° C. in small aliquots.
(§2) All 3′, 5′ cyclic nucleotide phosphodiesterase (PDE) enzyme activities are measured with a radiometric enzyme assay based on SPA detection system (scintillation proximity assay). Compounds to be tested are diluted in pure dimethyl sulfoxide (DMSO) using ten point concentration response curves. Maximal compound concentration in the reaction mixture is either 10 or 100 μM. Compounds at the appropriate concentration are pre-incubated with either of the PDE enzymes for 30 minutes before the reaction is started by the addition of substrate. Reactions are allowed to proceed for 60 minutes at room temperature. Next, reactions are stopped by addition of SPA beads. Samples are read 12 hours later in a MICROBETA™ TRILUX© Counter. “IC50” refers to the concentration of the compound that produces 50% of the maximal inhibitory response possible for that compound. IC50 values are calculated by plotting the normalized data vs. log [compound] and fitting the data using a four parameter logistic equation.
(§3) The following phosphodiesterase activities are measured using [3H]cAMP as reaction substrate: human PDE3A (catalytic domain) and human PDE4D. Both enzymes are cloned and purified following standard procedures. The assay buffer is prepared to give a final concentration in the assay of 50 mM Tris-HCl, 8.3 mM MgCl2, 1.7 mM ethylenediarninetetraacetic acid (EDTA) and 0.1% Bovine serum albumin at pH 7.5. Final enzyme concentrations are 0.008 and 0.021 nM for PDE3A and PDE4D, respectively. Reactions are started by addition of the substrate, [3H]cAMP, to give a final concentration of 47 nM.

[2] = molecular target: human PDE6A/6B (Homo sapiens (Human), UniProt P16499+P35913); assay: PDE enzyme assay using [3H]cGMP as substrate, PDE6A/6B; settings: [3H]cGMP 80 nM; enzyme 5 nM; read-out: PDE 6AB IC50 (μM) ± SD (n = number of runs)
Excerpt: as §1, §2
The following phosphodiesterase activities are measured using [3H]cGMP as reaction substrate: human PDE6A/6B. The catalytic active form of human PDE6 is a dimer composed of a α (human PDE6A) and β subunit (human PDE6B). The dimer of human PDE6A/6B is produced by the expression and purification strategy, using two purification steps, i.e., NiNTA and anti-FLAG Sepharose chromatography. The assay buffer is prepared to give a final concentration in the assay of 50 mM Tris-HCl, 8.3 mM MgC2, 1.7 mM EDTA and 0.1% Bovine serum albumin at pH 7.5. The final enzyme concentration is 5 nM. The reactions are started by addition of the substrate, [3H]cGMP, to give a final concentration of 80 nM.

[3] = molecular target: human PDE1B (Homo sapiens (Human), UniProt Q01064); assay: Ca2+ calmodulin dependent PDE enzyme assay (SPA, [3H]cAMP), PDE1B; settings: [3H]cAMP 47 nM; enzyme 0.074 nM; read-out: PDE 1B IC50 (nM) ± SD (n = number of runs)
Excerpt: as §1, §2
(§4) PDE1B, PDE1A, and PDE1C are cloned and purified following standard protein generation procedures. The assay buffer is prepared to give a final concentration in the assay of 50 mM Tris-HCl, 50 mM MgC2, 4 mM CaCl2, 0.1% Bovine serum albumin and 6 U/ml Calmodulin in water, at pH 7.5. The final enzyme concentration is 0.25, 0.074 and 0.0012 nM, for PDE1A, PDE1B and PDE1C respectively. The reactions are started by addition of the substrate, [^3H]cAMP, to give a final concentration of 47 nM.

[4] = molecular target: human PDE1A (Homo sapiens (Human), UniProt P54750); assay: Ca2+ calmodulin dependent PDE enzyme assay (SPA, [3H]cAMP), PDE1A; settings: [3H]cAMP 47 nM; enzyme 0.25 nM; read-out: PDE 1A IC50 (nM) ± SD (n = number of runs)
Excerpt: as §1, §2, §4

[5] = molecular target: human PDE4D (Homo sapiens (Human), UniProt Q08499); assay: PDE enzyme assay using [3H]cAMP as substrate, PDE4D; settings: [3H]cAMP 47 nM; enzyme 0.021 nM; read-out: PDE 4D IC50 (μm) ± SD (n = number of runs)
Excerpt: as §1, §2, §3

[6] = molecular target: human PDE1C (Homo sapiens (Human), UniProt Q14123); assay: Ca2+ calmodulin dependent PDE enzyme assay (SPA, [3H]cAMP), PDE1C; settings: [3H]cAMP 47 nM; enzyme 0.0012 nM; read-out: PDE 1C IC50 (nM) ± SD (n = number of runs)
Excerpt: as §1, §2, §4

human PDE4D, sequence (Q08499 other isoform, or with tags, fused parts or gaps): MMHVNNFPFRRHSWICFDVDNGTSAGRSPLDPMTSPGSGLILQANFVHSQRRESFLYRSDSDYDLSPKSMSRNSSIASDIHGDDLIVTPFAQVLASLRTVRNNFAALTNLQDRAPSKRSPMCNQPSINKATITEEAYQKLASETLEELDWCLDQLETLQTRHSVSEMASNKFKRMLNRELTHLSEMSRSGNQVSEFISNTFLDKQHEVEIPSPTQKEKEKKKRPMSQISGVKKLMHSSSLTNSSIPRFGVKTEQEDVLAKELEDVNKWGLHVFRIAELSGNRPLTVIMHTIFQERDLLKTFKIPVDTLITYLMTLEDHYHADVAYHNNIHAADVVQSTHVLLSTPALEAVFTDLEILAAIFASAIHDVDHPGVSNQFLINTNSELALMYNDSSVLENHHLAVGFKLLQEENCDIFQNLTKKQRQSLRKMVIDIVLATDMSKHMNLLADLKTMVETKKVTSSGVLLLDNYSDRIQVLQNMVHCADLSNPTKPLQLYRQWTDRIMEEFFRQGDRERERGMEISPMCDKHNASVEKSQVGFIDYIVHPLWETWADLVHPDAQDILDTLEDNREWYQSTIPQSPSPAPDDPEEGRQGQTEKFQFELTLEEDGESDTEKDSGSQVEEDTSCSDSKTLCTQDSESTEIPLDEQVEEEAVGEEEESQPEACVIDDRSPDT
human PDE6A/6B, sequence (P16499 whole entry): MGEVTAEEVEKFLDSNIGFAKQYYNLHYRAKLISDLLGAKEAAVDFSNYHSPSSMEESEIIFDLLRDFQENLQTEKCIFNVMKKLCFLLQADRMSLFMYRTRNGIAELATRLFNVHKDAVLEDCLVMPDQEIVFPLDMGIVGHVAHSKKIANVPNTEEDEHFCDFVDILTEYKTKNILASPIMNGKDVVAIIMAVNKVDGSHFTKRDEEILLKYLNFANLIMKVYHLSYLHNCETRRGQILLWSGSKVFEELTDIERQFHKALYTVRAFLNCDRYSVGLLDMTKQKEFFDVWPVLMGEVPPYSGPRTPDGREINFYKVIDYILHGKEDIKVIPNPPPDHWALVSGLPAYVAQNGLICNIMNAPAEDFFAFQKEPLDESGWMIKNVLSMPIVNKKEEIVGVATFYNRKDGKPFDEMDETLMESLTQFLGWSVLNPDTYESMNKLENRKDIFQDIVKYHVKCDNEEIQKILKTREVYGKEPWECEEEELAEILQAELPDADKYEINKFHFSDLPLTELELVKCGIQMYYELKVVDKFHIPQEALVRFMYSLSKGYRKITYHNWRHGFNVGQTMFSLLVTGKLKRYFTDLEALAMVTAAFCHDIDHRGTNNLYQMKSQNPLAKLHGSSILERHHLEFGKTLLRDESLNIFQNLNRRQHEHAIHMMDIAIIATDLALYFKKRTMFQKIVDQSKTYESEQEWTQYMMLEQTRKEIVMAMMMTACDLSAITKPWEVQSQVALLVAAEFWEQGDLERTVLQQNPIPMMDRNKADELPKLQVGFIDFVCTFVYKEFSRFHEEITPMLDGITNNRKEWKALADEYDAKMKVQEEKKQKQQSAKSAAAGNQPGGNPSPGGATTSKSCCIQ
human PDE6A/6B, sequence (P35913 other isoform, or with tags, fused parts or gaps): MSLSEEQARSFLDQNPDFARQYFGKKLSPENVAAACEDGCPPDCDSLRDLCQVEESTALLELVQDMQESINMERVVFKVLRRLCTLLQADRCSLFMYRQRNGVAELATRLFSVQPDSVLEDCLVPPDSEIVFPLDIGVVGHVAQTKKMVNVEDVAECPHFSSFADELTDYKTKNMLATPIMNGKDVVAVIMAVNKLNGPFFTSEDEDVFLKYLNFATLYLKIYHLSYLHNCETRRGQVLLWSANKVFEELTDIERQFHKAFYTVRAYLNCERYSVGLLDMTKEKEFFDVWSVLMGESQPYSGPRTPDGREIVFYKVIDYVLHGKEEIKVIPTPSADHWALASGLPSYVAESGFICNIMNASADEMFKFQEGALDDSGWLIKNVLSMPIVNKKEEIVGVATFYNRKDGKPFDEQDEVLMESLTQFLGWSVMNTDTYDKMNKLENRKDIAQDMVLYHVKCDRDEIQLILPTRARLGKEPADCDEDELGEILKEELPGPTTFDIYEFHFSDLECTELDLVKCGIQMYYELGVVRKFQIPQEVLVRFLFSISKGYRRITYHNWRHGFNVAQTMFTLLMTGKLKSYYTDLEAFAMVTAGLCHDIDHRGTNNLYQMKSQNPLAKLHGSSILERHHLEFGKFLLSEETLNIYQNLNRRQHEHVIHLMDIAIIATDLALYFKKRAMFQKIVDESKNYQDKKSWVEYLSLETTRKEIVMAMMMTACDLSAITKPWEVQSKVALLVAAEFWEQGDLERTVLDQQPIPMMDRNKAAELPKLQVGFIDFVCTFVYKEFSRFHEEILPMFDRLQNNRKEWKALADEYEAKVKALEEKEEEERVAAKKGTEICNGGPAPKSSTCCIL
human PDE3A (catalytic domain), sequence (Q14432 641-1141): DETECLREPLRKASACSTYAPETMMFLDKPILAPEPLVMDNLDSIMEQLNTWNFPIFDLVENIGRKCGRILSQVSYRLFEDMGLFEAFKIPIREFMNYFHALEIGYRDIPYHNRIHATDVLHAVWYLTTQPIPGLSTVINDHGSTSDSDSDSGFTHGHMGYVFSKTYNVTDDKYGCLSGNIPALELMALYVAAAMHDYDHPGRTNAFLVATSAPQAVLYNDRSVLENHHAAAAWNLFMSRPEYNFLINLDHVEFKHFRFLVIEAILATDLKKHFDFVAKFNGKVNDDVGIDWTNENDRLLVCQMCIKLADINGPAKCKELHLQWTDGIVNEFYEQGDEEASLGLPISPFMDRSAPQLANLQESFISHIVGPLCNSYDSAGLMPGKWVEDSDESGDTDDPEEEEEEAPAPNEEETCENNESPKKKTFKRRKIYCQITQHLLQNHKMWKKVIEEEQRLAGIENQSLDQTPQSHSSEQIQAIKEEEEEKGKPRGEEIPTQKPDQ

Compound	IC50 [1]	IC50 [2]	IC50 [3]	IC50 [4]	IC50 [5]	IC50 [6]
O=c1c2nnc(C3(C4CC4)CC3)n2c2c(n1CC1CCC1)CCOC2 [Example 5, 1-([1,1′-bi(cyclopropan)]-1-yl)-5-(cyclobutylmethyl)-5,6,7,9-tetrahydro-4H-pyrano[4,3-e][1,2,4]triazolo[4,3-a]pyrazin-4-one]	> 100000 nM	> 10 µM	4.2 nM	5.8 ± 2.3 nM	19200 nM	1.9 ± 0.4 nM
O=c1c2nnc(C3(C4CC4)CC3)n2c2c(n1CC1CC1)COCC2 [Example 6, 1-(1-cyclopropylcyclopropyl)-5-(cyclopropylmethyl)-3-oxo-7,8-dihydro-5H-pyrano-[1,2,4]triazolo[4,3-a]quinoxalin-4-one]	> 100000 nM	> 10 µM	14.9 nM	8.4 ± 3.8 nM	39200 ± 16500 nM	7.6 ± 1.9 nM
CCCn1c2c(n3c(C4(C5CC5)CC4)nnc3c1=O)CCCC2 [Example 1, 1-([1,1′-bi(cyclopropan)]-1-yl)-5-propyl-6,7,8,9-tetrahydro-[1,2,4]triazolo[4,3-a]quinoxalin-4(5H)-one]	> 100000 nM	> 10 µM	3.1 nM	2.9 ± 1.9 nM	12700 nM	2.6 ± 3.3 nM
O=c1c2nnc(C3(C4CC4)CC3)n2c2c(n1CC1CC1)CCCCC2 [Example 8, 1-([1,1′-bi(cyclopropan)]-1-yl)-5-(cyclopropylmethyl)-5,6,7,8,9,10-hexahydro-4H-cyclohepta[e][1,2,4]triazolo[4,3-a]pyrazin-4-one]	> 100000 nM	> 10 µM	6.6 nM	6.5 ± 2.6 nM	12100 nM	4.7 ± 1.4 nM

Next, values leading:

IC50 [1]	IC50 [2]	IC50 [3]	IC50 [4]	IC50 [5]	IC50 [6]	Compound
> 100000 nM	> 10 µM	4.1 nM	3 ± 2.1 nM	13200 ± 2500 nM	1.4 ± 0.9 nM	CCCCn1c2c(n3c(C4(C5CC5)CC4)nnc3c1=O)CCCC2 [Example 2, 1-([1,1′-bi(cyclopropan)]-1-yl)-5-butyl-6,7,8,9-tetrahydro-[1,2,4]triazolo[4,3-a]quinoxalin-4(5H)-one]
> 100000 nM	> 10 µM	12 nM	5.2 ± 2 nM	> 100000 nM	2 ± 0.1 nM	CCCCn1c2c(n3c(C4(C5CC5)CC4)nnc3c1=O)CCOC2 [Example 7, 1-([1,1′-bi(cyclopropan)]-1-yl)-5-butyl-8,9-dihydro-6H-pyrano[3,4-e][1,2,4]triazolo[4,3-a]pyrazin-4(5H)-one]
> 100000 nM	> 10 µM	7.8 nM	6.3 ± 0.4 nM	21800 nM	1.5 ± 0.5 nM	CCCCn1c2c(n3c(C4(C5CC5)CC4)nnc3c1=O)COCC2 [Example 4, 1-([1,1′-bi(cyclopropan)]-1-yl)-5-butyl-5,6,7,9-tetrahydro-4H-pyrano[4,3-e][1,2,4]triazolo[4,3-a]pyrazin-4-one]
> 100000 nM	> 10 µM	8.7 nM	9.8 ± 2.2 nM	16400 ± 300 nM	5.2 ± 0.6 nM	O=c1c2nnc(C3(C4CC4)CC3)n2c2c(n1CC1CC1)CCOC2 [Example 3, 1-([1,1′-bi(cyclopropan)]-1-yl)-5-(cyclopropylmethyl)-5,6,7,9-tetrahydro-4H-pyrano[4,3-e][1,2,4]triazolo[4,3-a]pyrazin-4-one]
